Key:
Dihydrofolate reductase [1] = target: T1, Dihydrofolate reductase (Mycobacterium avium, UniProt O30463); assay: Antimycobacterial activity against Mycobacterium avium complex dihydrofolate reductase (MAC DHFR)
T1 sequence (O30463 whole entry): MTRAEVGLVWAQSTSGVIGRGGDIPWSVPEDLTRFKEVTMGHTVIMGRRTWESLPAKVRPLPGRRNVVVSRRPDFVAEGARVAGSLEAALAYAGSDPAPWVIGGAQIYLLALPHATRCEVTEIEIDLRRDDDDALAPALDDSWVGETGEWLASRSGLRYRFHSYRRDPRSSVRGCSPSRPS

Dihydrofolate reductase [2] = target: T2, Dihydrofolate reductase (Homo sapiens, UniProt P00374); assay: Antimycobacterial activity against human dihydrofolate reductase (hDHFR)
T2 sequence (P00374 whole entry): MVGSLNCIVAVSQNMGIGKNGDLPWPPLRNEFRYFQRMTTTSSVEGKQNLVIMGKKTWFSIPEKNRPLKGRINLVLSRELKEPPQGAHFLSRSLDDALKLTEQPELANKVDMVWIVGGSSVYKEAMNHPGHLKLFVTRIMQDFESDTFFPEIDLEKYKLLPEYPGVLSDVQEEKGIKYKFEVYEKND

Dihydrofolate reductase [3] = target: T2, Dihydrofolate reductase; assay: Antimycobacterial activity against Human dihydrofolatereductase (hDHFR)
Dihydrofolate reductase [4] = target: T2, Dihydrofolate reductase
Dihydrofolate reductase [5] = target: T1, Dihydrofolate reductase; assay: Antimycobacterial activity scale was evaluated and found to be highly active against MAC Dihydrofolate reductase

Compound	IC50 (Dihydrofolate reductase [1])	IC50 (Dihydrofolate reductase [2])	IC50 (Dihydrofolate reductase [3])	IC50 (Dihydrofolate reductase [4])	IC50 (Dihydrofolate reductase [5])
Cc1c(CNc2cc(Br)ccc2Br)cnc2nc(N)nc(N)c12	0.7 nM	4.6 nM	–	–	–
Cc1c(CNc2cccc3c2CCCC3)cnc2nc(N)nc(N)c12	0.93 nM	142 nM	–	–	–
COc1ccc(C)c(NCc2cnc3nc(N)nc(N)c3c2C)c1	0.4 nM	150 nM	–	–	–
Cc1ccc(Cl)cc1NCc1cnc2nc(N)nc(N)c2c1C	0.79 nM	6.1 nM	–	–	–
Cc1c(CNc2ccc3c4c(cccc24)-c2ccccc2-3)cnc2nc(N)nc(N)c12	1 nM	6.2 nM	–	–	–
COc1cc(NCc2cnc3nc(N)nc(N)c3c2)cc(OC)c1OC	240 nM	3900 nM	–	–	–
CCCOc1ccc(OCCC)c(NCc2cnc3nc(N)nc(N)c3c2C)c1	1 nM	7300 nM	–	–	–
COc1ccc(SCc2cnc3nc(N)nc(N)c3c2C)cc1OC	1.5 nM	440 nM	–	–	–
Cc1c(CNc2ccc(Cl)cc2)cnc2nc(N)nc(N)c12	0.84 nM	27 nM	–	–	–
Cc1c(CSc2cccc(Cl)c2)cnc2nc(N)nc(N)c12	3.9 nM	420 nM	–	–	–
Cc1c(Cl)cccc1NCc1cnc2nc(N)nc(N)c2c1C	0.82 nM	5.2 nM	–	–	–
COCc1c(CNc2cc(OC)c(OC)c(OC)c2)cnc2nc(N)nc(N)c12	550 nM	1300 nM	–	–	–
Cc1c(CNc2ccc(Cl)c3ccccc23)cnc2nc(N)nc(N)c12	0.43 nM	2 nM	–	–	–
COc1cc(NCc2cnc3nc(N)nc(N)c3c2C)cc(OC)c1OC	0.82 nM	4.7 nM	–	–	–
Cc1c(CNc2c3ccccc3cc3ccccc23)cnc2nc(N)nc(N)c12	620 nM	–	–	–	–
Cc1cc(Cl)ccc1NCc1cnc2nc(N)nc(N)c2c1C	–	2.8 nM	–	–	–
COc1ccc(NCc2cnc3nc(N)nc(N)c3c2C)cc1F	0.91 nM	14 nM	–	–	–
CCOc1ccc(OCC)c(NCc2cnc3nc(N)nc(N)c3c2C)c1	–	2300 nM	–	–	–
COc1cc(SCc2cnc3nc(N)nc(N)c3c2C)cc(OC)c1OC	4.5 nM	1200 nM	–	–	–
CCc1c(CNc2cc(C)ccc2OC)cnc2nc(N)nc(N)c12	3.1 nM	370 nM	–	–	–
Cc1c(CNc2cccc3cnccc23)cnc2nc(N)nc(N)c12	0.87 nM	4 nM	–	–	–
Cc1cc(Br)ccc1NCc1cnc2nc(N)nc(N)c2c1C	0.85 nM	5.9 nM	–	–	–
Cc1cc(C)c(NCc2cnc3nc(N)nc(N)c3c2C)c(Cl)c1	3.8 nM	850 nM	–	–	–
CCOc1ccc(OCC)c(N(C)Cc2cnc3nc(N)nc(N)c3c2C)c1	1.4 nM	1000 nM	–	–	–
Cc1c(CNc2ccc(OC(F)F)cc2)cnc2nc(N)nc(N)c12	1.1 nM	20 nM	–	–	–
COc1cc(NCc2cnc3nc(N)nc(N)c3c2C)cc(C(F)(F)F)c1	0.93 nM	5.5 nM	–	–	–

Compound	IC50 (Dihydrofolate reductase [1])	IC50 (Dihydrofolate reductase [2])	IC50 (Dihydrofolate reductase [3])	IC50 (Dihydrofolate reductase [4])	IC50 (Dihydrofolate reductase [5])
COc1ccc(OC)c(SCc2cnc3nc(N)nc(N)c3c2C)c1	23 nM	2500 nM	–	–	–
Cc1c(CNC2CCCc3ccccc32)cnc2nc(N)nc(N)c12 (centres undefined)	280 nM	3400 nM	–	–	–
CCc1c(CNc2cc(C(F)(F)F)ccc2OC)cnc2nc(N)nc(N)c12	0.88 nM	3.6 nM	–	–	–
COc1cc(-c2ccccc2)ccc1NCc1cnc2nc(N)nc(N)c2c1C	0.91 nM	68 nM	–	–	–
COc1cc(Cl)c(C)cc1NCc1cnc2nc(N)nc(N)c2c1C	0.94 nM	10 nM	–	–	–
Cc1c(CNc2ccc3ccc4cccc5ccc2c3c45)cnc2nc(N)nc(N)c12	0.88 nM	3.8 nM	–	–	–
COCc1c(CNc2ccc(Cl)cc2)cnc2nc(N)nc(N)c12	–	2600 nM	–	–	–
Cc1c(CNc2ccccc2Cl)cnc2nc(N)nc(N)c12	0.91 nM	120 nM	–	–	–
Cc1cc(NCc2cnc3nc(N)nc(N)c3c2C)c(Cl)cc1F	0.78 nM	33 nM	–	–	–
Cc1ccc(Cl)c(NCc2cnc3nc(N)nc(N)c3c2C)c1	0.95 nM	44 nM	–	–	–
COc1cc(NCc2cnc3nc(N)nc(N)c3c2C)cc(OC)c1	20 nM	–	15 nM	–	–
Cc1ccc(F)cc1NCc1cnc2nc(N)nc(N)c2c1C	0.85 nM	19 nM	–	–	–
CCOc1ccc(NCc2cnc3nc(N)nc(N)c3c2C)cc1OC	1.1 nM	18 nM	–	–	–
Cc1c(CNc2ccccc2OC(F)F)cnc2nc(N)nc(N)c12	0.87 nM	277 nM	–	–	–
Cc1ccc(NCc2cnc3nc(N)nc(N)c3c2C)cc1Br	0.6 nM	3.7 nM	–	–	–
Nc1nc(N)c2cc(CNc3ccc(Cl)cc3)cnc2n1	73 nM	670 nM	–	–	–
COc1cc(OC)cc(N(C)Cc2cnc3nc(N)nc(N)c3c2C)c1	0.73 nM	8.7 nM	–	–	–
Cc1ccc(F)c(NCc2cnc3nc(N)nc(N)c3c2C)c1	1.1 nM	250 nM	–	–	–
COc1cc(CCc2cnc3nc(N)nc(N)c3c2C)cc(OC)c1	1.5 nM	990 nM	–	–	–
Cc1cccc(SCc2cnc3nc(N)nc(N)c3c2C)c1	16 nM	850 nM	–	–	–
COc1ccc(C(F)(F)F)cc1N(C)Cc1cnc2nc(N)nc(N)c2c1C	1.2 nM	36 nM	–	–	–
Cc1c(CNc2cc(C(F)(F)F)ccc2F)cnc2nc(N)nc(N)c12	0.86 nM	4.1 nM	–	–	–
CCc1c(CNc2cc(OC)ccc2OC)cnc2nc(N)nc(N)c12	2.8 nM	1000 nM	–	–	–
Cc1cc(Br)cc(C)c1NCc1cnc2nc(N)nc(N)c2c1C	5.3 nM	1900 nM	–	–	–
Cc1c(CNc2ccc3c(c2)Cc2ccccc2-3)cnc2nc(N)nc(N)c12	0.86 nM	6.7 nM	–	–	–
Nc1nc(N)c2cc(CNc3cccc4ccccc34)cnc2n1	86 nM	820 nM	–	–	–

Compound	IC50 (Dihydrofolate reductase [1])	IC50 (Dihydrofolate reductase [2])	IC50 (Dihydrofolate reductase [3])	IC50 (Dihydrofolate reductase [4])	IC50 (Dihydrofolate reductase [5])
Cc1c(CNc2ccc3ncccc3c2)cnc2nc(N)nc(N)c12	0.95 nM	7.1 nM	–	–	–
Cc1c(CNc2ccc3ccccc3c2)cnc2nc(N)nc(N)c12	0.76 nM	10 nM	–	–	–
Cc1c(CNc2cnc3ccccc3c2)cnc2nc(N)nc(N)c12	1.2 nM	12 nM	–	–	–
COc1ccc(C(F)(F)F)cc1NCc1cnc2nc(N)nc(N)c2c1C	0.66 nM	2.7 nM	–	–	–
Cc1c(CNc2cc(C(F)(F)F)ccc2Br)cnc2nc(N)nc(N)c12	0.82 nM	3.2 nM	–	–	–
COc1ccc(NCc2cnc3nc(N)nc(N)c3c2C)cc1OC	0.7 nM	5.1 nM	–	–	–
COCc1c(CNc2cc(OC)ccc2OC)cnc2nc(N)nc(N)c12	2400 nM	31000 nM	–	–	–
Cc1c(CNc2cccc3ccccc23)cnc2nc(N)nc(N)c12	0.81 nM	4.3 nM	–	< 100 nM	–
COCc1c(CNc2ccc(OC)c(OC)c2)cnc2nc(N)nc(N)c12	1200 nM	6100 nM	–	–	–
Cc1c(CNC2c3ccccc3-c3ccccc32)cnc2nc(N)nc(N)c12	320 nM	5300 nM	–	–	–
Cc1ccc(NCc2cnc3nc(N)nc(N)c3c2C)cc1Cl	0.9 nM	6.7 nM	–	–	–
Cc1c(CSc2cccc3ccccc23)cnc2nc(N)nc(N)c12	4.6 nM	440 nM	–	–	–
Cc1c(CN(C)c2cccc3c2CCCC3)cnc2nc(N)nc(N)c12	1.9 nM	710 nM	–	–	–
Cc1cc(NCc2cnc3nc(N)nc(N)c3c2C)ccc1Br	0.87 nM	6.1 nM	–	–	–
COc1cccc(SCc2cnc3nc(N)nc(N)c3c2C)c1	2.7 nM	500 nM	–	–	–
Cc1c(CNc2cccc3ncccc23)cnc2nc(N)nc(N)c12	0.98 nM	4.3 nM	–	–	–
CCCOc1ccc(NCc2cnc3nc(N)nc(N)c3c2C)cc1OC	0.93 nM	15 nM	–	–	< 10 nM
COc1ccc(OC)c(CCc2cnc3nc(N)nc(N)c3c2C)c1	47 nM	2700 nM	–	–	–
Cc1c(CNc2cccc(Cl)c2)cnc2nc(N)nc(N)c12	0.82 nM	17 nM	–	–	–
COc1ccc(C)cc1NCc1cnc2nc(N)nc(N)c2c1C	0.86 nM	300 nM	–	–	–
Cc1c(CNc2cc(Cl)ccc2Cl)cnc2nc(N)nc(N)c12	0.89 nM	8 nM	–	–	–
COc1ccc(OC)c(NCc2cnc3nc(N)nc(N)c3c2C)c1	1.1 nM	1000 nM	–	–	–
Cc1c(CSc2ccc(Cl)cc2)cnc2nc(N)nc(N)c12	3.6 nM	590 nM	–	–	–
Cc1ccc(C)c(NCc2cnc3nc(N)nc(N)c3c2C)c1	0.92 nM	57 nM	–	–	–
Cc1c(CNc2cc(F)ccc2F)cnc2nc(N)nc(N)c12	0.9 nM	69 nM	–	–	–
Cc1c(CNc2ccc(Cl)c(Cl)c2)cnc2nc(N)nc(N)c12	0.92 nM	5 nM	–	–	–
